Measured values reported in publication PMC8305169, “Two Pathway-Specific Transcriptional Regulators, PltR and PltZ, Coordinate Autoinduction of Pyoluteorin in Pseudomonas protegens Pf-5” (Microorganisms, 2021).
pKd: −log10 of the molar value.

Molecular target: T1, PltZ (Pseudomonas protegens, UniProt Q4KCY3)
T1 construct: full-length, N-terminal 6xHis tag (pET28a), expressed in E. coli BL21 (DE3), Ni-NTA purified
Experiment: isothermal titration calorimetry
Format: binding

T1 sequence (Q4KCY3 entry or part of it): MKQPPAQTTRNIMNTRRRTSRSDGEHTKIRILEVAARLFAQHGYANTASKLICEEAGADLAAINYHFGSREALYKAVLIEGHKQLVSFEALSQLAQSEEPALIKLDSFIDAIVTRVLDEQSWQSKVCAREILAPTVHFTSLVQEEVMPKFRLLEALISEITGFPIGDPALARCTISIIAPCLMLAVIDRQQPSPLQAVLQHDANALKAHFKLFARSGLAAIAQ

## O=C(c1cc(Cl)c(Cl)[nH]1)c1c(O)cccc1O [pyoluteorin]
  pKd: ~7.88
